Some targets named below: FGR (Homo sapiens, UniProt P09769); HIPK2 (Homo sapiens, UniProt Q9H2X6); KIT(D816H) (Homo sapiens, UniProt P10721, D816H).
Assay in all cases: biochemical
Holding throughout (set-up): DiscoveRx KINOMEscan active site-directed competition binding; percent of control kinase bound to immobilised ligand

In assay [1] the target is T1, ABL1(T315I)-phosphorylated (Homo sapiens, UniProt P00519, T315I).
T1 construct: phosphorylated

In the next assay the target is T2, BRK (Homo sapiens, UniProt Q13882).
T2 construct: gene PTK6

The target in another assay is T3, FLT3(N841I) (Homo sapiens, UniProt P36888, N841I).
T3 sequence (P36888 1-993 N841I): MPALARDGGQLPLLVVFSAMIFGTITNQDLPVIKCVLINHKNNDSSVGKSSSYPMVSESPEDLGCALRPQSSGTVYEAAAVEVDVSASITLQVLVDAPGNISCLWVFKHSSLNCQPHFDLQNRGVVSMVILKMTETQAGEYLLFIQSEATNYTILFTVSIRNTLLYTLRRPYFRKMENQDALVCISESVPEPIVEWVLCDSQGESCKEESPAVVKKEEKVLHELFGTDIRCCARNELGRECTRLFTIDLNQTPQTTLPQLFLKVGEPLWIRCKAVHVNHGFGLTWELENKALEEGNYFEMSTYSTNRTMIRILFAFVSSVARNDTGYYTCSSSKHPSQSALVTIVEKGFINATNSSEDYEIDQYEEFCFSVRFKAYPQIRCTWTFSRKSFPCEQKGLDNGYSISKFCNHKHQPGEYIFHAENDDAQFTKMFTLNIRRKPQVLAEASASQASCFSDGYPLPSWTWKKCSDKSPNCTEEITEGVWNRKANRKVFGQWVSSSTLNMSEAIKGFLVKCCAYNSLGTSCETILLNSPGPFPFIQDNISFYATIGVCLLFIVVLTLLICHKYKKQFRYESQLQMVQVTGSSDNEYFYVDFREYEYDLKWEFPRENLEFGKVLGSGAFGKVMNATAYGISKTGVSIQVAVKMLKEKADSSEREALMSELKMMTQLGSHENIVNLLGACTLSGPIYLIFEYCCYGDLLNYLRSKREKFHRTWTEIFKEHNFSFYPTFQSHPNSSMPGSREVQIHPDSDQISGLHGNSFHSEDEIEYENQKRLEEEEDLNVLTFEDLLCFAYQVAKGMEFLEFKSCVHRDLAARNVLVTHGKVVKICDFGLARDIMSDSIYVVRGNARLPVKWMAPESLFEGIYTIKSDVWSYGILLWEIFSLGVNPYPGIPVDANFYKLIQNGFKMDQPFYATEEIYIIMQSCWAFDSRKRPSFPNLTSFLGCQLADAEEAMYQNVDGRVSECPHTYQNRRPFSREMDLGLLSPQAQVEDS

The target in the next assay is T4, FLT3-autoinhibited (Homo sapiens, UniProt P36888).
T4 sequence (P36888 1-993): T3 sequence (P36888 1-993 N841I) with I841N

The target of another assay is T5, PKAC-alpha (Homo sapiens, UniProt P17612).
T5 construct: gene PRKACA

The next assay addresses T6, VEGFR2 (Homo sapiens, UniProt P35968).
T6 construct: gene KDR

[2] abbreviates: read-out: Niraparib (MK-4827) / %Ctrl @ 10000nM.
The mark [3] stands for this setting: read-out: Olaparib / %Ctrl @ 10000nM.
Setting [4] is: read-out: Rucaparib / %Ctrl @ 10000nM, binding competition, % of control.
Where [5] appears, read: binding competition, % of control.
Where [6] appears, read: read-out: Talazoparib (BMN 673) / %Ctrl @ 10000nM.

Changes are numbered by the printed parent chain. Where two headings read alike, the source gives them in different places.

T6 sequence (P35968 whole entry): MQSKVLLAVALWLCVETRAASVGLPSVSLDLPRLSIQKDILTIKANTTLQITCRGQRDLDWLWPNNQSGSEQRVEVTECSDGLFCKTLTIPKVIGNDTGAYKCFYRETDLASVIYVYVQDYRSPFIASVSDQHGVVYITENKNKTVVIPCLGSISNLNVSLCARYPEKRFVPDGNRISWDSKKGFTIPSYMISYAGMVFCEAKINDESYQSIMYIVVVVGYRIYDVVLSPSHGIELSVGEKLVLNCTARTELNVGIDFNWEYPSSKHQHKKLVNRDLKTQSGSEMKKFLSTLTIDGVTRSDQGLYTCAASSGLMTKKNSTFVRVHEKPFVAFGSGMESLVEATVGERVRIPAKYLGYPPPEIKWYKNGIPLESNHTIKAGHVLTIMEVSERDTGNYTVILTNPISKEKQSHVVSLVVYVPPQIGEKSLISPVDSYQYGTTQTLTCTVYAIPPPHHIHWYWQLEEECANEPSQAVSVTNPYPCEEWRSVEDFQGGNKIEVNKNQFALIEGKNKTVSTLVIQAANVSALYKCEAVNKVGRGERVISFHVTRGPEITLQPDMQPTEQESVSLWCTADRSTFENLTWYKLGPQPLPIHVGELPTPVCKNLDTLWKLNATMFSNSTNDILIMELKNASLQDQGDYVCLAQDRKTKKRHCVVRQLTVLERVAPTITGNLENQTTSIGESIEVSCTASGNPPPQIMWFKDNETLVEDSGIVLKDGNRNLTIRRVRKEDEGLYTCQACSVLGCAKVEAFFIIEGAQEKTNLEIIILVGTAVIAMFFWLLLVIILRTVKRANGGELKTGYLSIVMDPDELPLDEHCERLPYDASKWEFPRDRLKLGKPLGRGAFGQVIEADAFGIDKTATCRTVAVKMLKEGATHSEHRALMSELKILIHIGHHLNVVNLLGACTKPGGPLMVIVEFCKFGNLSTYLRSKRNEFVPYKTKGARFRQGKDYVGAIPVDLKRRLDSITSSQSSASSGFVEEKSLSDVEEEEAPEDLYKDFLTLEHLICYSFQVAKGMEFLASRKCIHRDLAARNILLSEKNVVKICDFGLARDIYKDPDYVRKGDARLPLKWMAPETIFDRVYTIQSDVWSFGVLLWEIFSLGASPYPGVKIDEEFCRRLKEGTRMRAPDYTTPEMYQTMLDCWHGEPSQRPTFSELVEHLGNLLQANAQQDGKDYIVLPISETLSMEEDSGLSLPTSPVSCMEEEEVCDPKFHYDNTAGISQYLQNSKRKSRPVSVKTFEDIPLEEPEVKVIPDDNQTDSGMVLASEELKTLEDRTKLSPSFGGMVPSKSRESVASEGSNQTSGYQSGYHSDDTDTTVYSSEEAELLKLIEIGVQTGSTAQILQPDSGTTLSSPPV
Sequence of KIT(D816H) (P10721 whole entry D816H): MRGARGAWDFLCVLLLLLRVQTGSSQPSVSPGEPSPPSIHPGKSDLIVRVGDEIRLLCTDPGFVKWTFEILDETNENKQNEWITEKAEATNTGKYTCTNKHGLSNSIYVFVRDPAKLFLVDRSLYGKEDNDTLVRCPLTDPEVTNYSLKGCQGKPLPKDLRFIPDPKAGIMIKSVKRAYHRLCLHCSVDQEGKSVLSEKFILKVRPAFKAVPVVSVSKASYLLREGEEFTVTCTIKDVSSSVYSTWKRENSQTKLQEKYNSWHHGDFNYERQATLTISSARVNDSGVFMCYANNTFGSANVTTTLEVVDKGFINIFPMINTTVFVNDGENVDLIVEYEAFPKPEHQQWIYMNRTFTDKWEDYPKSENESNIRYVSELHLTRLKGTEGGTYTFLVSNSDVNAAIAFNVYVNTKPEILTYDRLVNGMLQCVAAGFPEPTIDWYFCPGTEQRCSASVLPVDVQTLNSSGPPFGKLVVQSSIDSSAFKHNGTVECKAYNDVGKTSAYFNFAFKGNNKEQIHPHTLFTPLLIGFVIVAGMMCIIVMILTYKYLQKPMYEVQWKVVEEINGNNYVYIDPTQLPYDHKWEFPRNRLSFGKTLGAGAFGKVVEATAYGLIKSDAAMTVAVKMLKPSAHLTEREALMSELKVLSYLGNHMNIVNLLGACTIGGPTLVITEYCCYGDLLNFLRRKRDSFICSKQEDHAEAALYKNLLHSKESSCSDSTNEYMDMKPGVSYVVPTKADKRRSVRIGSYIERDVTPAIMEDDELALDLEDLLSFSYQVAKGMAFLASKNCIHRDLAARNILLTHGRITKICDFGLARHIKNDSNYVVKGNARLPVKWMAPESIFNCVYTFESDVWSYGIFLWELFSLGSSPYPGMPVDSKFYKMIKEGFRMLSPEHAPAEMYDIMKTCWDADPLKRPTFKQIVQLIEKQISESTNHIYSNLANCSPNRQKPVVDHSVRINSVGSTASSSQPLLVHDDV
Sequence of HIPK2 (Q9H2X6 whole entry): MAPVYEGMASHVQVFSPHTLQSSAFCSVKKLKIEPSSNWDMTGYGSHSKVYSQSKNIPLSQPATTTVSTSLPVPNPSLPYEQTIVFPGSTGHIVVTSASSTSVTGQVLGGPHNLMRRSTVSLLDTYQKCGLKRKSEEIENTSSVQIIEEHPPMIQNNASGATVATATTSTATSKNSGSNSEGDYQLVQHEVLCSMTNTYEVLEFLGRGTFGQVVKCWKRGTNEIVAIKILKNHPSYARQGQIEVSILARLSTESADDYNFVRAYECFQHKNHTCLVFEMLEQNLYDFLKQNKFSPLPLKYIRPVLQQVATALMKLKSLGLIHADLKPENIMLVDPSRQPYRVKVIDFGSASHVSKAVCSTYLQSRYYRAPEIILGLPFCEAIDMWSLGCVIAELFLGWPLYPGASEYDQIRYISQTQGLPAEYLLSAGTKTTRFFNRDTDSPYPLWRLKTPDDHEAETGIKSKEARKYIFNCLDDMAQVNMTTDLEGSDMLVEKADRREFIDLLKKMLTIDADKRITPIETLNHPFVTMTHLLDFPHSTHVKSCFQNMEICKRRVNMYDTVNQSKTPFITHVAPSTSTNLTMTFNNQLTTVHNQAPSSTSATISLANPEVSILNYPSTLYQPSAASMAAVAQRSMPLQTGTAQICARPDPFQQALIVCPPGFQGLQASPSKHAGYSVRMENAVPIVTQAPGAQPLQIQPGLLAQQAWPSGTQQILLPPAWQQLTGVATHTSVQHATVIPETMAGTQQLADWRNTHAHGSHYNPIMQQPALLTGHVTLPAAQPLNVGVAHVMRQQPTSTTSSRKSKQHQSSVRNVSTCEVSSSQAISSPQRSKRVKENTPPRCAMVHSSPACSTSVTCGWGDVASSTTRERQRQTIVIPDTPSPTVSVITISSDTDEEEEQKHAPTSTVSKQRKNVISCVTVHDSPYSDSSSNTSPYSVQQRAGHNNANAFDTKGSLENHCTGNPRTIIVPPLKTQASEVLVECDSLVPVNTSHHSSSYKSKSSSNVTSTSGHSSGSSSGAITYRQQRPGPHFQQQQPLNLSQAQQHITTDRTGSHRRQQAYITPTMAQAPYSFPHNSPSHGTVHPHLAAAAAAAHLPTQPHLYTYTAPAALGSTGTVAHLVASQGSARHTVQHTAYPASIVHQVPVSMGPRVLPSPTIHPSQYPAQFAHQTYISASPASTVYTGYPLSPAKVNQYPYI
T2 sequence (Q13882 whole entry): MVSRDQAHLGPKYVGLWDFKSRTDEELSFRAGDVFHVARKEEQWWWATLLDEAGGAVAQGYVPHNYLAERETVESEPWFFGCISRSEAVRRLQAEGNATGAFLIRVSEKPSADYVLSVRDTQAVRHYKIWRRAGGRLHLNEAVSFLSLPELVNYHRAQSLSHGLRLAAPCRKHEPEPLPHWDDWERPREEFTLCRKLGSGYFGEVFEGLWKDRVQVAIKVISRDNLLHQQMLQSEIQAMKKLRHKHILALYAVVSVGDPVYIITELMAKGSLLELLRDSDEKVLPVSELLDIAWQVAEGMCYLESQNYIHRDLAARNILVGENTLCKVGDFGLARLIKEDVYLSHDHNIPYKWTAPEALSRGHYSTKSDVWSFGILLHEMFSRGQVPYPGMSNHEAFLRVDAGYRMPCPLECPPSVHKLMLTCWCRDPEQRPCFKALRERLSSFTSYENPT
Sequence of FGR (P09769 whole entry): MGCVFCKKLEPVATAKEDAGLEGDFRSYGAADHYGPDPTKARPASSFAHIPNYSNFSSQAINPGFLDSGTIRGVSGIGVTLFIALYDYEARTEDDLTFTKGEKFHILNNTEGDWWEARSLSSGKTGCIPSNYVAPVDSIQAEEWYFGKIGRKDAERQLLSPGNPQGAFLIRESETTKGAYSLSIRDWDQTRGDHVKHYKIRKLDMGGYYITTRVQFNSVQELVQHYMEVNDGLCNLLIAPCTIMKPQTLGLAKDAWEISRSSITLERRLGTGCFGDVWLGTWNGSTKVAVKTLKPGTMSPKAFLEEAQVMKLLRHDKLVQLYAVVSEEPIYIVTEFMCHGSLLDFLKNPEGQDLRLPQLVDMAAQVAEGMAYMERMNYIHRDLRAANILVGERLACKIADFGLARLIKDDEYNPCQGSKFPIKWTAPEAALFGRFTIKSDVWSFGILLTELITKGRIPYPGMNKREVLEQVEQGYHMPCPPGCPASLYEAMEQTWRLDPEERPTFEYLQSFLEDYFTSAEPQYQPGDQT

Regarding `NC(=O)c1cccc2cn(-c3ccc([C@@H]4CCCNC4)cc3)nc12` [Niraparib], the percent of control binding at 10 µM in assay [1] (setting [2]) was 95%; at BRK (setting [2]), 91%; at FGR (setting [2]) it was 85%; at FLT3(N841I) (setting [2]), 77%; on FLT3-autoinhibited (setting [2]) it was 84%; on HIPK2 (setting [2]) it was 1.1%. For the same compound, the percent of control binding at 10 µM at KIT(D816H) (setting [2]) is 94%; on PKAC-alpha (setting [2]), 86%; at VEGFR2 (setting [2]), 77%.
With `O=C(c1cc(Cc2n[nH]c(=O)c3ccccc23)ccc1F)N1CCN(C(=O)C2CC2)CC1` [Olaparib], the percent of control binding at 10 µM is 87% in assay [1] (setting [3]); 88% on BRK (setting [3]); 92% on FGR (setting [3]); 95% at FLT3(N841I) (setting [3]); 87% on FLT3-autoinhibited (setting [3]); 95% at HIPK2 (setting [3]). Moreover, the percent of control binding at 10 µM at KIT(D816H) (setting [3]) is 96%; at PKAC-alpha (setting [3]), 100%; at VEGFR2 (setting [3]), 95%.
Regarding `CNCc1ccc(-c2[nH]c3cc(F)cc4c3c2CCNC4=O)cc1` [Rucaparib], the percent of control binding at 10 µM in [1] (setting [4]) came to 67%; at BRK (setting [4]), 99%; on FGR (setting [4]) it was 96%; on HIPK2 (setting [4]), 5.1%; on KIT(D816H) (setting [4]), 82%; on PKAC-alpha (setting [4]), 100%. Besides, the percent of control binding at 10 µM on VEGFR2 (setting [4]) amounted to 98%. Besides, the entries for the “Rucaparib / %Ctrl @ 10000nM” value at FLT3(N841I) (setting [5]) and at FLT3-autoinhibited (setting [5]) were 64% and 93%, respectively.
With `Cn1ncnc1[C@H]1c2n[nH]c(=O)c3cc(F)cc(c23)N[C@@H]1c1ccc(F)cc1` [Talazoparib], the percent of control binding at 10 µM came out at 100% in assay [1] (setting [6]); 100% on BRK (setting [6]); 99% at FGR (setting [6]); 100% on FLT3(N841I) (setting [6]); 100% at FLT3-autoinhibited (setting [6]); 99% at HIPK2 (setting [6]). The percent of control binding at 10 µM stood at 100% on KIT(D816H) (setting [6]), 88% at PKAC-alpha (setting [6]) and 100% at VEGFR2 (setting [6]).

Source of the values: PMC7026418, “The kinase polypharmacology landscape of clinical PARP inhibitors” (Scientific Reports, 2020).
